Reference: patent publication US9289400B2, “D3 dopamine receptor agonists to treat dyskinesia in parkinson's disease” (priority 2010, dated 2016)
pKi: −log10 of the molar value. Entries after “also recorded” stand apart in the source; their conditions may differ. Where two headings read alike, the source gives them in different places.

What was measured:
[1] = biological target: T1, D3 dopamine receptor (Homo sapiens (Human), UniProt P35462); assay: D3 receptor tolerance and SRT: GIRK response to repeated agonist application in AtT-20 cells; assay type: cell-based; conditions: AtT-20 cells expressing human D3, 100-300 nM agonist, repeated ~60 s applications
Method: To determine whether a compound abolishes the D3 receptor tolerance and SRT, the D3 receptor-activated GIRK response to two consecutive treatments of the lead compound is measured. […] Drug solutions were delivered to cells via a multi-barreled micropipette array. The current responses were normalized to the cell capacitance, to account for variation in cell size.
To identify agonists that might modulate D3 receptor tolerance and SRT properties, ten distinct agonists were screened for their ability to induce tolerance and SRT, using the D3 receptor-GIRK channel signaling pathway as an assay.
Target sequence in this assay (P35462 other isoform, or with tags, fused parts or gaps): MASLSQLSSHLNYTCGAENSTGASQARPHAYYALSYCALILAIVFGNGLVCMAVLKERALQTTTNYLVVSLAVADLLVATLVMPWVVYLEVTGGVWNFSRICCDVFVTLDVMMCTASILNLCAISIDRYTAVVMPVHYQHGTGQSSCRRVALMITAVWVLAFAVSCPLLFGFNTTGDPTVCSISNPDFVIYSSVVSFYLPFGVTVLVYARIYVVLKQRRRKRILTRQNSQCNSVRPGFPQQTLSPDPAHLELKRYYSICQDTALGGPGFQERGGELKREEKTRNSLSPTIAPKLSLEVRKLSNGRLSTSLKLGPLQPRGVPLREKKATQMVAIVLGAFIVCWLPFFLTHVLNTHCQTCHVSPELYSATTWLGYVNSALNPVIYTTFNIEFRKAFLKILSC

[2] = biological target: T1, D3 dopamine receptor; assay: GIRK channel activation, whole cell voltage clamp, AtT-20 cells stably expressing D3; assay type: cell-based; conditions: D2/D3 antagonist eticlopride (100 nM)
Method: The activation of the GIRK channels was measured electrophysiologically using whole cell voltage clamp recording (Kuzhikandathil et al., 2004, Mol. Cell. Neurosci. 26:144-155). […]. The adenylyl cyclase inhibition was determined using a commercially available ELISA assay (Westrich & Kuzhikandathil, 2007, Biochim. Biophys. Acta-Mol. Cell. Res. 1773:1747-1758).
. In the initial screen, the ability of 300 nM lead compound to activate G-protein coupled inward rectifier potassium (GIRK) channels (FIG. 1) is measured using whole cell voltage clamp recording. The protocol has been previously used for performing whole cell voltage clamp and measuring agonist-induced GIRK response. […]. The EC50 values for each receptor subtype is determined by fitting the data points using the Hill equation.
AtT-20 mouse pituitary cells were grown in Ham's F10 medium with 5% FBS, 10% heat-inactivated horse serum, 2 mM glutamine and 50 μg/ml gentamicin (Invitrogen, Carlsbad, Calif.). AtT-20 cells stabling expressing the human D2S, D2L, D3, and D4.2 and receptor were maintained in the above F10 culture media supplemented with 500 μg/ml G418 (Invitrogen). For electrophysiological characterization, cells were plated onto glass coverslips coated with 40 μg/ml poly L-lysine (Sigma-Aldrich). […]. Physiol. 115:697-706; Kuzhikandathil et al., 1998, Mol. Cell. Neurosci. 12:390-402; Kuzhikandathil & Bartoszyk, 2006, Neuropharm. 51:873-884; Westrich & Kuzhikandathil, 2007, Biochim. Biophys. Acta-MCR 1773:1747-1758; Kuzhikandathil et al., 2004, Mol. Cell. Neurosci. 26:144-155; Westrich et al., 2010, Biochem. Pharmacol. 79:897-907).
Agonist-activated currents were measured by the whole-cell patch clamp technique in voltage clamp and current clamp mode as described previously (Kuzhikandathil & Oxford, 2000, J. Gen. Physiol. 115:697-706; Kuzhikandathil et al., 1998, Mol. Cell. Neurosci. 12:390-402; Kuzhikandathil & Bartoszyk, 2006, Neuropharm. 51:873-884; Westrich & Kuzhikandathil, 2007, Biochim. Biophys. Acta-MCR 1773:1747-1758; Kuzhikandathil et al., 2004, Mol. Cell. Neurosci. 26:144-155; Westrich et al., 2010, Biochem. Pharmacol. 79:897-907). Drug solutions were delivered to cells via a multi-barreled micropipette array. The current responses were normalized to the cell capacitance, to account for variation in cell size.
To compare the functional effects of the new class of D3 receptor agonists, PBZI (Table 2) and ES609 (Table 3) were tested on AtT-20 cells stably expressing human D3, D2S, D2L or D4.2. […]. The EC50 values of PBZI and ES609 for inhibiting adenylyl cyclase and activating GIRK channels were in the range of 0.2 nM to 30 nM for D3 receptors. […]. […]
Target sequence in this assay (P35462 other isoform, or with tags, fused parts or gaps): as above

[3] = tested on: Balb/c mice; assay: Locomotor activity (open field, TruScan) in Balb/c mice
Method: Therefore, three different doses of the lead compound are administered and their effects on locomotor activity are determined. The dosage is determined based on the functional EC50 values and binding affinity of the lead compound from the cell-based assays described above. The compound is administered to Balb/c mice and locomotor activity is monitored using the TruScan Automated Behavioral Monitoring system (Coulborn Instruments).
A total of 12 young adult, male Balb/c mice were obtained form Charles River, Inc. (Wilmington, Mass.), and housed in groups of four in standard cages. The animals were maintained on a 12 hour light/12 hour dark cycle and permitted ad lib access to food and water. Experiments were conducted during the animal's light phase. […] For PD128907, separate groups of Balb/c mice received subcutaneous injections of saline (n=4) or 0.05 or 0.4 mg/kg PD128907 (n=4, for each). Locomotion (‘distance traveled’) scores of drug-injected animals were collapsed across 10-min intervals and for comparison purposes were normalized to saline injected animals (FIG. 12A). The experiment was conducted on three separate occasions.

[4] = tested on: intrastriatal 6-OHDA lesioned rats; assay: Levodopa-induced dyskinesia (AIMs score) in intrastriatal 6-OHDA lesioned rats; assay type: in vivo, rat; conditions: PD128907 0.1 mg/kg sc; PBZI 17 mg/kg sc; hydrochloride
Method: In particular, rats in which unilateral intrastriatal lesion is induced by injection of 6-OHDA (7 μg) at three different sites in the ventrolateral striatum are used. The coordinates for the three injection sites are, in mm: injection site 1: AP: +1.0; ML: −3.0; DV: −5.0; injection site 2: AP: −0.1; ML: −3.7; DV: −5.0; injection site 3: AP: −1.2; ML: −4.5; DV: −5.0. Anterior-posterior (AP) and mediolateral (ML) coordinates are from bregma. The dorso-ventral (DV) coordinates are from dura. The toothbar location is 0.
Seven and half weeks after the lesion, chronic levodopa treatment (6 mg/kg, single dose per day given with 15 mg/kg benserazide) is initiated. Stepping test and AIMs scores are determined on day 1, 8, 10, 17 and 24 after the initiation of chronic levodopa treatment. […] AIMs are scored using a rating scale based on frequency and severity of the dyskinetic symptoms. It should be noted that the rank order of the various AIMs components in terms of frequency and severity in the rat model is: limb>orolingual=axial>>locomotor. This lesion model has been used to test the effect of PBZI on LID (Example 3).
FIG. 13A illustrates the effect of control, PD128907 (a tolerance inducing D2/D3 agonist) and PBZI (a non tolerance inducing D3/D3 agonist) on the total AIMs score (includes locomotor, axial, limb and orolingual) over time of a day 17 (chronic L-DOPA phase) lesioned animal.

[5] = biological target: D2S (Homo sapiens (Human), UniProt P14416); conditions: Scheideler et al., 1997; cited from earlier work
[6] = biological target: T1, D3 dopamine receptor; conditions: cited from earlier work
Target sequence in this assay (P35462 whole entry): as the sequence (P35462 other isoform, or with tags, fused parts or gaps) above, with S9G counted along it

[7] = biological target: D4.2; conditions: Scheideler et al., 1997; cited from earlier work
[8] = tested on: intrastriatal 6-OHDA lesioned rats; assay: Forelimb stepping test in intrastriatal 6-OHDA lesioned rats; conditions: levodopa 2, 4 and 6 mg/kg with benserazide
[9] = biological target: T2, D4.2 dopamine receptor (Homo sapiens (Human), UniProt P21917, DEL265-296); conditions: Kuzhikandathil & Bartoszyk, 2006; cited from earlier work
[10] = biological target: T2, D4.2 dopamine receptor; conditions: Kuzhikandathil & Bartoszyk, 2006; cited from earlier work; remark: listed apart in the source
[11] = biological target: T3, D2L dopamine receptor (Homo sapiens (Human), UniProt P14416); conditions: Kuzhikandathil & Bartoszyk, 2006; cited from earlier work
[12] = biological target: T3, D2L dopamine receptor; conditions: Kuzhikandathil & Bartoszyk, 2006; cited from earlier work; remark: listed apart in the source
[13] = biological target: D2S dopamine receptor (Homo sapiens (Human), UniProt P14416); assay: Tolerance and SRT at D2S dopamine receptors; assay type: cell-based
D2S dopamine receptor, sequence (P14416 other isoform, or with tags, fused parts or gaps): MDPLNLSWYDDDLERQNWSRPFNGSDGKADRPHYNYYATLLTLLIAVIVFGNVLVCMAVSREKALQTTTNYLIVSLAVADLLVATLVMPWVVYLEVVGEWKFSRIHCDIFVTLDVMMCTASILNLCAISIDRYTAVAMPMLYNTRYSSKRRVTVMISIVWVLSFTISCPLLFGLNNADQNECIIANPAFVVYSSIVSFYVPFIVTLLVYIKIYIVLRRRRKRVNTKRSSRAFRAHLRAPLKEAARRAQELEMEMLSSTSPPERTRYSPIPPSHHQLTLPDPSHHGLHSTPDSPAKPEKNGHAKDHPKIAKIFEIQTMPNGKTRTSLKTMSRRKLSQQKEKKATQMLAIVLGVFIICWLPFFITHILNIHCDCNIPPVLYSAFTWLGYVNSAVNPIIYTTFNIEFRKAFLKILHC

T3 sequence (P14416 whole entry): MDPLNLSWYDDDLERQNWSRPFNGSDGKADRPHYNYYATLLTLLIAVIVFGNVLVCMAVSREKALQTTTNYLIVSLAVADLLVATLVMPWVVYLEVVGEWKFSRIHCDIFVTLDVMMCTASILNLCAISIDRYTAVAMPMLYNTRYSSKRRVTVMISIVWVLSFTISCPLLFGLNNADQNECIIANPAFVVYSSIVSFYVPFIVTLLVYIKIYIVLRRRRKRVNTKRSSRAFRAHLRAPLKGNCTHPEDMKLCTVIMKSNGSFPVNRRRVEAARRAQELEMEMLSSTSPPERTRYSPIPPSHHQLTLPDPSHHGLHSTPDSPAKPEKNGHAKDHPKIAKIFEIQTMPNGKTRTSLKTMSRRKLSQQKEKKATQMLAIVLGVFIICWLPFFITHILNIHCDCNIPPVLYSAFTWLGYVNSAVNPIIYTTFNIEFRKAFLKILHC
T2 sequence (P21917 other isoform, or with tags, fused parts or gaps del 265-296): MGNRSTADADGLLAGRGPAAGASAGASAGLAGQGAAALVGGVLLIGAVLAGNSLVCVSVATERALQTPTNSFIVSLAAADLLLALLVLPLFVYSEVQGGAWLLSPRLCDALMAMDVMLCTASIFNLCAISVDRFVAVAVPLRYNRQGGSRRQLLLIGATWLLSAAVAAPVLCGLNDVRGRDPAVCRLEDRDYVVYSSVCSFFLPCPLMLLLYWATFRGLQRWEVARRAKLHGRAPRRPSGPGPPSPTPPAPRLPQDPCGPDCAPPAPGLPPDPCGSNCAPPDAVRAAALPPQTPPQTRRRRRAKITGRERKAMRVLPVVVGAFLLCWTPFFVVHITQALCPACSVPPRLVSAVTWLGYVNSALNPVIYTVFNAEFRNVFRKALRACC
D2S, sequence (P14416 other isoform, or with tags, fused parts or gaps): as the sequence (P14416 other isoform, or with tags, fused parts or gaps) above

C#CC1=CCC(N(CCC)CCC)CC1 (stereo not drawn) [FAUC73, (4-ethynylcyclohex-3-enyl) dipropylamine]
D3 receptor tolerance and SRT properties (agonist-induced GIRK response) [1]: abolished the tolerance property; also recorded: abolished both tolerance and SRT properties; also recorded: do not show D3 receptor tolerance and SRT
D3 receptor tolerance and SRT properties (agonist-induced GIRK response) ([1]; listed as FAUC 73): completely abolished the receptors' tolerance and SRT properties
specificity of agonist effect (eticlopride pretreatment / parental cells) [2]: specific for D3 receptors

CCCN1CCO[C@@H]2c3cc(O)ccc3OC[C@H]21.Cl [PD128907, (4aR,10bR)-3,4-a,4,10b-tetrahydro-4-propyl-2H,5H-[1]benzopyrano-[4,3-b]-1,4-oxazin-9-ol hydrochloride]
D3 receptor tolerance and SRT properties (agonist-induced GIRK response) ([1]; hydrochloride): elicited tolerance and SRT; also recorded: induced enhanced tolerance; also recorded: induces severe tolerance and SRT
D3 receptor tolerance and SRT properties (agonist-induced GIRK response) ([1]; listed as PD 128907, hydrochloride): tolerance is elicited
duration of hypoactivity post-injection ([3]; PBZI 10 mg/kg sc, PD128907 0.4 mg/kg sc): 40 min
duration of hypoactivity post-injection ([3]; PD128907 0.05 mg/kg sc): 20 min
time by which locomotor activity returns to control saline levels ([3]; post-injection, PBZI 10 mg/kg sc, PD128907 0.4 mg/kg sc): ≤ 120 min
dose at which biphasic locomotor effect was observed ([3]; sc): ≥ 0.05 mg/kg
locomotor response ([3]; sc, PBZI 10 mg/kg, PD128907 0.05-0.4 mg/kg, normalized to saline, hydrochloride): induces both hypoactivity and hyperactivity; also recorded: biphasic locomotor response; also recorded: biphasic effect; also recorded: an initial hypoactivity (horizontal arrows) that is followed by hyperactivity
dyskinesia induced by the compound itself, before levodopa administration [4]: in of itself induced dyskinesia; also recorded: increased AIMs score even before the levodopa was administered
pKi [5]: 6.69
pKi ([6]; D3, Scheideler et al., 1997, read-out: Ki): 9.40
pKi ([6]; source not stated, read-out: D3 dopamine receptor binding affinity Ki): 8.64
pKi [7]: 6.94

N[C@@H](Cc1ccc(O)c(O)c1)C(=O)O [levodopa, L-3,4-dihydroxyphenylalanine]
forelimb bradykinesia (forelimb stepping test) [8]: dose dependent improvement in forelimb bradykinesia

Fc1ccc(-c2cncc(CNC[C@H]3CCc4ccccc4O3)c2)cc1 [sarizotan, 1-[(2R)-3,4-dihydro-2H-chromen-2-yl]-N-([5-(4-fluorophenyl)pyridin-3-yl]methyl)methanamine]
adenylyl cyclase pathway: agonist type [9]: full agonist
GIRK channel signaling pathway: agonist type [10]: partial agonist
adenylyl cyclase pathway: agonist type [11]: full agonist
GIRK channel signaling pathway: agonist type [12]: partial agonist
tolerance and SRT properties at D2S [13]: induces tolerance and slow response termination (SRT) properties
